One data set has as its system COX-1. The data set can be described thus: Western blot, stomach, COX-1 protein expression. The settings on record: ketorolac 10 mg/Kg, ketogal 16.3 mg/Kg, oral, 3, 5 and 7 days; versus control stomachs. Type of data set: in vivo, mice. The source says:
(§1) Animals were sacrificed and then liver, stomach and kidney were collected in glass tubes and analysed histologically and biochemically.
In general terms: In western blotting, separated proteins are transferred to a membrane and probed.

For the next data set, the system named is lipid peroxidation. Nature of the data set: Malonyldialdehyde assay in liver lysates. It counts as in vivo, mice. The following applies: ketogal 16.3 mg/Kg oral for 3, 5 and 7 days. The procedure:
as §1
Liver samples were fixed in 10% buffered formalin and embedded in paraffin, sliced, and stained with hematoxylin & eosin (H&E) for assessment of liver pathology. […] To confirm histological data, western blot analysis for TNF-alpha, IL-6 and malonyldialdehyde assay were then performed in liver lysates.

As to `O=C(c1ccccc1)c1ccc2n1CC[C@@H]2C(=O)OCC1O[C@H](O)C(O)C(O)[C@H]1O` (mixture of isomers) [Ketogal, ketorolac-D-galactos-6′-yl ester], in the data set on COX-1, the “Gastric COX-1 protein expression” value was “not inhibited”. Also, the “Lipid peroxidation level in liver (malonyldialdehyde)” value with lipid peroxidation is given as “no different compared to control mice”.
